Usually IC50 stands for the concentration that gives 50% inhibition.

1 molecule from article PMC7558282, “The Anticancer Activity for the Bumetanide-Based Analogs via Targeting the Tumor-Associated Membrane-Bound Human Carbonic Anhydrase-IX Enzyme” (Pharmaceuticals, 2020) can be followed below.

One assay relates to A-498 cells. Briefly: cell cycle analysis (PI, flow cytometry) in A-498. In kind it is cell-based, human. To be noted: 6 µM, 48 h. The method, then:
The efficient antiproliferative activity of compound 9c on the kidney carcinoma A-498 cell line (Table 2) prompted a further investigation of its mechanistic growth inhibitory action. Thus, the impact of bumetanide analog 9c at 6 µM for 48 h on cell cycle distribution and induction of apoptosis in A-498 cells was next explored. […] Analysis of apoptosis was performed to determine the mode of cell death induced by 9c in A-498 cells. Compound 9c induced both early and late apoptosis in A-498 cells at 6 µM when compared to the untreated control cells (p < 0.01 and p < 0.001, respectively) (Figure 5A). […]
Figure 4 (A) Effect of compound 9c on the cell cycle and apoptosis in kidney carcinoma cell line A-498. […] Cells were then fixed, stained with propidium iodide (PI), and analyzed by flow cytometry. […] (B) Quantitative analysis of 4N (G2/M), 2N (G0G1), > 2N (S), and < 2N (sub-G1). DNA content was determined with CellQuest software. […]
A-498 Cells were seeded at a density of 1 × 10^5 cells/well in 24-well plates and treated with compound 9c (6 µM) for 48 h. […] The DNA content of cells (10,000 cells/experimental group) was analyzed by flow cytometer at 488 nm using a FACSCalibur flow cytometer (BD Biosciences, San Jose, CA, USA) and all data were recorded and analyzed using the CellQuest Software (Becton-Dickinson Biosciences, San Jose, CA, USA). […]

In the next assay the test system is HEK-293 cells. Briefly: MTT assay, non-tumorigenic HEK-293. Format: cell-based. The settings on record: HEK293, normal human embryonic kidney cells. As for the experimental part:
Such differential activity patterns could be explained as off-target activity mediated by the latter compounds being related to a specific cancer cell line.
Figure 3 Antiproliferative activity of compound 9c in tumorigenic A-498 cells and non-tumorigenic HEK-293 cells. The experiment was performed in triplicate and significance was represented as mean ± S.D. ** = p < 0.01; *** = p < 0.001 between indicated groups.
The colorimetric MTT Cell Proliferation® Assay Kit (Cat. №. 10009365; Cayman Chemical^TM, Ann Arbor, MI, USA) has been utilized to assess the cytotoxic impact of the investigated compounds on solid cancer cell lines. […] Color intensity within each well was measured spectrophotometrically using the ROBONIK-P2000® ELISA microplate reader (Bio-Tek^TM, Winooski, VT, USA) at 450 nm while subtracting the background absorbance of multi well plates at 690 nm. The experiment was conducted in triplicates and IC50 values were estimated through linear regression between the logarithm-transformed compound concentrations and corresponding % cell viability = (mean absorbance in test wells/mean absorbance in control wells) ∗ 100, having the response variable slope (four parameters) for all samples.
(Tetrazolium dyes change colour on reduction, which living cells bring about.)

With `CCCCNc1cc(-c2n[nH]c(=S)n2-c2ccc(Br)cc2)cc(S(N)(=O)=O)c1Oc1ccccc1` [Compound 9c], the “cells in the sub-G1 phase” value in the assay on A-498 cells (control 1.3%) turned out to be 25.5%. Also, the “cell population at the G2/M stage” value in the assay on A-498 cells (untreated control 10.8%) was determined as 48.6%. Also, in the assay on HEK-293 cells, the concentration for half-maximal inhibition (IC50) is more than 50 µM.
